pIC50: −log10 of the molar value. The source made the active and inactive calls. The rule behind the calls is not given here.
Columns and labels:
[1] = target: T1, Bifunctional epoxide hydrolase 2 (Homo sapiens, UniProt P34913); assay: Inhibition of human recombinant soluble epoxide hydrolase assessed as cyano(6-methoxy-naphthalen-2-yl)methyl trans-[(3-phenyloxyran-2-yl)methyl] carbonate conversion to 6-methoxy-2-naphthaldehyde preincubated for 5 mins prior to substrate addition by fluorescence assay
T1 sequence (P34913 whole entry): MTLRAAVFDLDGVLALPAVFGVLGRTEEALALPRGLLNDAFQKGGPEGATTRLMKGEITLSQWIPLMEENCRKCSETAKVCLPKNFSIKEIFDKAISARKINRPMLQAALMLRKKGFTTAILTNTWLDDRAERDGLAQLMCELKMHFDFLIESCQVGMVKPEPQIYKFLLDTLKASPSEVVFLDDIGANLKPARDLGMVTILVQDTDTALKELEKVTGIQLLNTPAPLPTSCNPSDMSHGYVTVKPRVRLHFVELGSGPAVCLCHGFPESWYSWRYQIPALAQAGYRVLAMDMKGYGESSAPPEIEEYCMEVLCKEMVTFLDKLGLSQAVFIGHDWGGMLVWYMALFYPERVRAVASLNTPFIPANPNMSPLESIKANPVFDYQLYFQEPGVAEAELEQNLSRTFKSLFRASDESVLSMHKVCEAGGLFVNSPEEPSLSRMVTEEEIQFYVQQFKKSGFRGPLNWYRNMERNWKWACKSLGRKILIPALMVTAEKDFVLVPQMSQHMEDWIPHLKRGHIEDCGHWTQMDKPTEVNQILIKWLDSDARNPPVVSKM

[2] = target: Serine/threonine-protein kinase B-raf (Homo sapiens, UniProt P15056, V600E); assay: Inhibition of B-RAF V600E mutant (unknown origin) using MEK1 as substrate
Sequence of Serine/threonine-protein kinase B-raf (P15056 2-766 V600E limits assumed): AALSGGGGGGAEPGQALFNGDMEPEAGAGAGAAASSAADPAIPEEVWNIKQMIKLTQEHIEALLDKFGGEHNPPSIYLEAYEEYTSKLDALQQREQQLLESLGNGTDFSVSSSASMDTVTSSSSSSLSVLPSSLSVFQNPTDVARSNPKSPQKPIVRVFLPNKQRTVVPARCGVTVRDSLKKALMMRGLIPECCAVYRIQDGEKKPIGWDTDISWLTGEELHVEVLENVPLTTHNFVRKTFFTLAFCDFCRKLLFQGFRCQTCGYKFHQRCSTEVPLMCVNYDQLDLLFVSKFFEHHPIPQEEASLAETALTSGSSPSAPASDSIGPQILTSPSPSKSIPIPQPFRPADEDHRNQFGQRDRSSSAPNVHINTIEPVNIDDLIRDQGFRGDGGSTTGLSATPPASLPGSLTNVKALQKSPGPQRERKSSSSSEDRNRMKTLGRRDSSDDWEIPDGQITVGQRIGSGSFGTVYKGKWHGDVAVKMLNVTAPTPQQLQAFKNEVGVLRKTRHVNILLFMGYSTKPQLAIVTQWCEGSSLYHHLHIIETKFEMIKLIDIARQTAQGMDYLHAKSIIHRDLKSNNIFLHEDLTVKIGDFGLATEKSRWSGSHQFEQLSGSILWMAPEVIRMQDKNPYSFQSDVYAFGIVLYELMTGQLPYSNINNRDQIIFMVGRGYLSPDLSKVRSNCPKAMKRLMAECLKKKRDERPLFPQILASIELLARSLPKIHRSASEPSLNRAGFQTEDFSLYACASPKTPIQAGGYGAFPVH

Huh-7 = assay: Cytotoxicity against human HuH7 cells by MTT assay
HepG2 = assay: Cytotoxicity against human HepG2 cells by MTT assay
[3] = target: Vascular endothelial growth factor receptor 2 (Homo sapiens) (UniProt P35968); assay: Inhibition of VEGFR-2 (unknown origin) at 10 uM after 1 hr by luminescence assay
Sequence of Vascular endothelial growth factor receptor 2 (Homo sapiens) (P35968 whole entry): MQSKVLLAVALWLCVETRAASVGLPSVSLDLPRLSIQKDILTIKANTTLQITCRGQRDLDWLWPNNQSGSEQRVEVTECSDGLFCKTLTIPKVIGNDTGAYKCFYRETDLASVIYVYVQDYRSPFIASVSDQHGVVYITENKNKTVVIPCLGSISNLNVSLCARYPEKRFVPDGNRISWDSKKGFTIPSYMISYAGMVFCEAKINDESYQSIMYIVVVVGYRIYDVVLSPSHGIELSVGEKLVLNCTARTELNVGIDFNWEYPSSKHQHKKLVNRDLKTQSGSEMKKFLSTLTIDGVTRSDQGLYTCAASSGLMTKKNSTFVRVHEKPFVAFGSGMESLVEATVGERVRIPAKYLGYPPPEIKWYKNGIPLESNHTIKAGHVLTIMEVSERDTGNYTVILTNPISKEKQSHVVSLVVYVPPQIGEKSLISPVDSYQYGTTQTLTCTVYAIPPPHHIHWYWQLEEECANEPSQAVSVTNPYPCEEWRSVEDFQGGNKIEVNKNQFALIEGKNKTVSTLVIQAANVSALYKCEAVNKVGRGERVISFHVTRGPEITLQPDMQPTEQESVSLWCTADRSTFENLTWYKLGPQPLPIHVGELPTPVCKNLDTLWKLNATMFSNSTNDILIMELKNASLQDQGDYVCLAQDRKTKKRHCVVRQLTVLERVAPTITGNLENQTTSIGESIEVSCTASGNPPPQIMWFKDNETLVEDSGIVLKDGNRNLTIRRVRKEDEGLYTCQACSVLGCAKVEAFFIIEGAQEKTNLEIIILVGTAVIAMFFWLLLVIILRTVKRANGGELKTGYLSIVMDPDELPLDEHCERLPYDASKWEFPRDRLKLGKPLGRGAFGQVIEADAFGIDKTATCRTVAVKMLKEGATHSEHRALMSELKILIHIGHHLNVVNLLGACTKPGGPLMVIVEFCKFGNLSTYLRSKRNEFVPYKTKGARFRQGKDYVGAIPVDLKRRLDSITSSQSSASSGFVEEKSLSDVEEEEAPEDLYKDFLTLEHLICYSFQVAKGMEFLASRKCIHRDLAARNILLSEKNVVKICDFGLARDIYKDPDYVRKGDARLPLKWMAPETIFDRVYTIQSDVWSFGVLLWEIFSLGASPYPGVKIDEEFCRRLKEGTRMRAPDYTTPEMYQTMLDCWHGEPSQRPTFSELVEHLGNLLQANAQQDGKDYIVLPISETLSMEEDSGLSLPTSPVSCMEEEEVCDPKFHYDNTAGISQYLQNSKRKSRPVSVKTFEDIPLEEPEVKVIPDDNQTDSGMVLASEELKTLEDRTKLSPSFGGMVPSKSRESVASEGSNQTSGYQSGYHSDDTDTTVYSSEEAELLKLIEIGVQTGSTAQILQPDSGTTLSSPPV

HUVEC [4] = assay: cells; conditions: Homo sapiens, 72 h
Description: (§1) Antiproliferative activity against HUVEC after 72 hrs by MTT assay

[5] = target: RAF proto-oncogene serine/threonine-protein kinase (Homo sapiens, UniProt P04049); assay: Inhibition of full length recombinant c-RAF (unknown origin) using MEK1 as substrate after 1 hr by luminescence assay
Sequence of RAF proto-oncogene serine/threonine-protein kinase (P04049 whole entry): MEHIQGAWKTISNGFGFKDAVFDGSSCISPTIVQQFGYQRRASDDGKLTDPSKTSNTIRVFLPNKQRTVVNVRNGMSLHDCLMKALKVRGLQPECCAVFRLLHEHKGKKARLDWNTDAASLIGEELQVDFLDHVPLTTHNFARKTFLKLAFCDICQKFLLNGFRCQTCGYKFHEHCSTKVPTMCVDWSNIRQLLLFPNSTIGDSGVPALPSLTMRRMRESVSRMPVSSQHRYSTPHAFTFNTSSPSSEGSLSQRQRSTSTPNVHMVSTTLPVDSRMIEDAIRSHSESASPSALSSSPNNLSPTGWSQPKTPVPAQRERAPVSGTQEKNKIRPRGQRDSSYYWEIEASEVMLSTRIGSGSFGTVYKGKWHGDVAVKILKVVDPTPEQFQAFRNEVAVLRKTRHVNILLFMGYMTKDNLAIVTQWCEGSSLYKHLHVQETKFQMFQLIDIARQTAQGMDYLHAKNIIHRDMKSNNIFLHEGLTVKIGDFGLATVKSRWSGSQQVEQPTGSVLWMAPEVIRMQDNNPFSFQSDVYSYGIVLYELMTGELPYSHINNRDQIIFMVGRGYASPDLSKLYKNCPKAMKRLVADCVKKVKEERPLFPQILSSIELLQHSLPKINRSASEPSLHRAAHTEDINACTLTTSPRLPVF

[6] = target: T2, 3-phosphoinositide-dependent protein kinase 1 (Homo sapiens) (UniProt O15530); assay: Inhibition of recombinant PDPK-1 (unknown origin) at 10 uM
T2 sequence (whole entry): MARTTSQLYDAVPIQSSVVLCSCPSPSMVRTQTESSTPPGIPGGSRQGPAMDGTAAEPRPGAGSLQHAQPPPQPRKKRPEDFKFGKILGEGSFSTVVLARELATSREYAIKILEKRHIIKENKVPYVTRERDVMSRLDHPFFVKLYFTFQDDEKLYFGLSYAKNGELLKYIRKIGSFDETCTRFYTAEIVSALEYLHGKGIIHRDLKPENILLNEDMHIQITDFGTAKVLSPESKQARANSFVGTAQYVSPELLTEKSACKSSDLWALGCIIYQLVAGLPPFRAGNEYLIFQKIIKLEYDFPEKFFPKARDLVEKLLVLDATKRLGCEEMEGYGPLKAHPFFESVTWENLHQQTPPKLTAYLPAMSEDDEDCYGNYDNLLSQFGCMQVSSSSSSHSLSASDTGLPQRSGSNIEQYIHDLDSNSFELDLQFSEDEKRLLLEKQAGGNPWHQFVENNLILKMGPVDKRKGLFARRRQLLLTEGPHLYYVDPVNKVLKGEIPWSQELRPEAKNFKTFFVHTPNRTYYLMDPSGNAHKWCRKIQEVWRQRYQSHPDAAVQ

[7] = target: Vascular endothelial growth factor receptor 2 (Homo sapiens) (UniProt P35968); assay: Inhibition of recombinant KDR (unknown origin) at 10 uM
[8] = target: Platelet-derived growth factor receptor alpha (Homo sapiens) (UniProt P16234); assay: Inhibition of recombinant PDGFRalpha (unknown origin) at 10 uM
Sequence of Platelet-derived growth factor receptor alpha (Homo sapiens) (P16234 whole entry): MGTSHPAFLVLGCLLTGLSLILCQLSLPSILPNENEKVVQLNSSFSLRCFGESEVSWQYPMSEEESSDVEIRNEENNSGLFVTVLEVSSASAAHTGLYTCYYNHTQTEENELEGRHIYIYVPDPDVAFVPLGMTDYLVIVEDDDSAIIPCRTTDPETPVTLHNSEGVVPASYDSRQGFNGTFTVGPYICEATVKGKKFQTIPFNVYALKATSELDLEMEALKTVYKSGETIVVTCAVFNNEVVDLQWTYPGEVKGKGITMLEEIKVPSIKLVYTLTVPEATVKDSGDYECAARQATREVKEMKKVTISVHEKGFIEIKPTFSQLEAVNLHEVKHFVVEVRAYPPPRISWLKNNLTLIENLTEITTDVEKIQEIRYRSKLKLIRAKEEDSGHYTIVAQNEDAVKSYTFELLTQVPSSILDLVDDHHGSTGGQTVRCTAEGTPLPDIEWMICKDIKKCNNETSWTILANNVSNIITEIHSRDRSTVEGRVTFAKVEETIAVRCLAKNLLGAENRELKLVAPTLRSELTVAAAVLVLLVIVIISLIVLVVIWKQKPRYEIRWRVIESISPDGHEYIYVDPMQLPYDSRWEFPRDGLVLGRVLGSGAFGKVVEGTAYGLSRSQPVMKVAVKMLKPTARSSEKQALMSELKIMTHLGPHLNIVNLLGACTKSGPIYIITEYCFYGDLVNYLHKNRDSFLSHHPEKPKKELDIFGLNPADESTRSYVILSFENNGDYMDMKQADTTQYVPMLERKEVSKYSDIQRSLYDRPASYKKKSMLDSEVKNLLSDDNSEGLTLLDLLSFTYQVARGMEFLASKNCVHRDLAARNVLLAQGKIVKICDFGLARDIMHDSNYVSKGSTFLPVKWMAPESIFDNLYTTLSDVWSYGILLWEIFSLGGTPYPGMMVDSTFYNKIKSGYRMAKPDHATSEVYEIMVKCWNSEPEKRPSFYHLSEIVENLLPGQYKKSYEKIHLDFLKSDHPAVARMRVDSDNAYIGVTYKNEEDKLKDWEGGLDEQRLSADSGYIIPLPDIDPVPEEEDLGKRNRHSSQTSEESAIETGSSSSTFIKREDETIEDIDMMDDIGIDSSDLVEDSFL

[9] = target: Platelet-derived growth factor receptor beta (Homo sapiens) (UniProt P09619); assay: Inhibition of recombinant PDGFRbeta (unknown origin) at 10 uM
[10] = target: Glycogen synthase kinase-3 alpha (Homo sapiens) (UniProt P49840); assay: Inhibition of recombinant GSK3alpha (unknown origin) at 10 uM
Sequence of Glycogen synthase kinase-3 alpha (Homo sapiens) (P49840 2-483 limits assumed): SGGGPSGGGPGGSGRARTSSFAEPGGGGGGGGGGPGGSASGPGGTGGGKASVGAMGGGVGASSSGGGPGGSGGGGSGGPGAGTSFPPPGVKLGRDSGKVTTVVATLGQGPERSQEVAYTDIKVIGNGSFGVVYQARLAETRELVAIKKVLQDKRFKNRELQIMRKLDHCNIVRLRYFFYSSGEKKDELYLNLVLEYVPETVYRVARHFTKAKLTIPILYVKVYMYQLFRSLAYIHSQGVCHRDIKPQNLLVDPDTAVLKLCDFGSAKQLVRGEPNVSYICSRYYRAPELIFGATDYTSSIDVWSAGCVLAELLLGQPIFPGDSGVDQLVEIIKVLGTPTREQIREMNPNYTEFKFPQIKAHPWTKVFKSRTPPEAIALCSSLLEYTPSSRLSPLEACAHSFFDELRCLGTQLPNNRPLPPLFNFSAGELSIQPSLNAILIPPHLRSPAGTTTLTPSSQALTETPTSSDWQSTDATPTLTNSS

[11] = target: Fibroblast growth factor receptor 2 (Homo sapiens) (UniProt P21802); assay: Inhibition of recombinant FGFR-2 (unknown origin) at 10 uM
[12] = target: Vascular endothelial growth factor receptor 1 (Homo sapiens) (UniProt P17948); assay: Inhibition of recombinant FLT-1 (unknown origin) at 10 uM
[13] = target: Receptor-type tyrosine-protein kinase FLT3 (Homo sapiens) (UniProt P36888); assay: Inhibition of recombinant FLT-3 (unknown origin) at 10 uM
[14] = target: Tyrosine-protein kinase ABL2 (Homo sapiens) (UniProt P42684); assay: Inhibition of recombinant ABL-2 (unknown origin) at 10 uM
HUVEC [15] = tested on: HUVEC
Description: as §1

[16] = target: Hepatocyte growth factor receptor (Homo sapiens) (UniProt P08581); conditions: at 10 µM
Description: Inhibition of recombinant MET (unknown origin) at 10 uM

SMILES	pIC50 [1]	GI50 (Huh-7; Homo sapiens, Huh-7) [µM]	GI50 (HepG2; Homo sapiens, HepG2) [µM]	GI50 (HUVEC [4]) [µM]	pIC50 [5]	further results
CNC(=O)c1cc(Oc2ccc(NC(=O)Nc3ccc(Cl)c(C(F)(F)F)c3)c(F)c2)ccn1 [REGORAFENIB]	9.30	–	–	–	–	–
CNC(=O)c1cc(Oc2ccc(NC(=O)Nc3ccc(OC(F)(F)F)cc3)cc2)ccn1	–	7	7	> 25	–	pIC50 [2]: < 5.30; inhibition [3]: Active
CNC(=O)c1ccc(O[C@H]2CC[C@H](NC(=O)NC34CC5CC(CC(C5)C3)C4)CC2)cc1	–	5.5	7	> 25	< 5.00	–
O=C(Nc1ccc(Cl)c(C(F)(F)F)c1)N[C@H]1CC[C@H](Oc2cccc(C(=O)O)c2)CC1	8.07	> 25	> 25	10.5	< 5.00	–
O=C(Nc1ccc(OC(F)(F)F)cc1)N[C@H]1CC[C@H](Oc2ccc(C(=O)O)cc2)CC1	–	–	–	–	–	GI50 (Huh-7): 20 µM; GI50 (HepG2): 15 µM; inhibition [6]: inactive; inhibition [7]: inactive; inhibition [8]: inactive; inhibition [9]: inactive; inhibition [10]: inactive; inhibition [11]: inactive; inhibition [12]: inactive; inhibition [13]: inactive; inhibition [14]: inactive; GI50 (HUVEC [15]): > 25 µM; inhibition [16]: inactive
CNC(=O)c1ccc(O[C@H]2CC[C@H](NC(=O)Nc3ccc(Cl)c(C(F)(F)F)c3)CC2)cn1	–	8	7	10.5	–	inhibition [3]: Active
CCN(CC)CCNC(=O)c1c(C)[nH]c(/C=C2\C(=O)Nc3ccc(F)cc32)c1C [SUNITINIB]	< 5.00	–	–	–	–	–
CNC(=O)c1ccc(O[C@H]2CC[C@H](NC(=O)Nc3ccc(OC(F)(F)F)cc3)CC2)cc1	–	5.5	7	> 25	< 5.00	–
O=C(NC12CC3CC(CC(C3)C1)C2)N[C@H]1CC[C@H](Oc2ccc(C(=O)O)cc2)CC1	–	–	–	–	–	inhibition [6]: inactive; inhibition [7]: inactive; inhibition [8]: inactive; inhibition [9]: inactive; inhibition [10]: inactive; inhibition [11]: inactive; inhibition [12]: inactive; inhibition [13]: inactive; inhibition [14]: inactive
O=C(Nc1ccc(Cl)c(C(F)(F)F)c1)N[C@H]1CC[C@H](Oc2ccc(C(=O)O)cc2)CC1	9.30	> 25	> 25	25	5.37	–
CNC(=O)c1cc(O[C@H]2CC[C@H](NC(=O)Nc3ccc(Cl)c(C(F)(F)F)c3)CC2)ccn1	–	8	7	11	–	inhibition [3]: Active
CNC(=O)c1cc(O[C@H]2CC[C@@H](NC(=O)Nc3ccc(Cl)c(C(F)(F)F)c3)CC2)ccn1	–	8.5	7.5	10	–	–
CNC(=O)c1cc(Oc2ccc(NC(=O)NC34CC5CC(CC(C5)C3)C4)cc2)ccn1	–	7	10	25	6.00	pIC50 [2]: < 5.30; inhibition [3]: Active
CN(C)C(=O)c1cc(O[C@H]2CC[C@H](NC(=O)Nc3ccc(Cl)c(C(F)(F)F)c3)CC2)ccn1	9.30	8	10	–	< 5.00	–
CS(=O)(=O)N1CCC(NC(=O)Nc2ccc(OC(F)(F)F)cc2)CC1	–	> 25	> 25	> 25	< 5.00	–
CNC(=O)c1cc(O[C@H]2CC[C@H](NC(=O)Nc3ccc(OC(F)(F)F)cc3)CC2)ccn1	–	7	7	> 25	< 5.00	–
CNC(=O)c1cccc(O[C@H]2CC[C@H](NC(=O)Nc3ccc(Cl)c(C(F)(F)F)c3)CC2)c1	9.00	7.5	6.5	11	6.53	–
CNC(=O)c1ccc(O[C@H]2CC[C@H](NC(=O)Nc3ccc(Cl)c(C(F)(F)F)c3)CC2)cc1	–	16	> 25	> 25	–	–

From ChEMBL document CHEMBL2396585, “Synthesis and biological evaluation of sorafenib- and regorafenib-like sEH inhibitors” (Bioorg Med Chem Lett, 2013)
